The results in this text go back to PMC5655141, “Allosteric fine-tuning of the conformational equilibrium poises the chaperone BiP for post-translational regulation” (eLife, 2017).

Common to all, as to assay: ITC
Common to all, as to format: binding

Assay [1] has as its target T1, BiP* FL (full-length T229G BiP, BiP(1-641)) (Cricetulus griseus, UniProt G3I8R9, T229G).
T1 construct: gene HSPA5; full-length two-domain BiP, residues 1-641 as printed, non-cleavable N-terminal 6xHis tag, pET28a, E. coli BL21(DE3); ATPase-deficient T229G; non-AMPylated
An excerpt: ITC on BiP* FL (full-length T229G BiP, BiP(1-641))

The target in the next assay is T2, BiP* NBD(1-417) (Cricetulus griseus, UniProt G3I8R9, T229G).
T2 construct: gene HSPA5; T229G

The next assay concerns the target T3, BiP* NBD(1-413) (Cricetulus griseus, UniProt G3I8R9, T229G).
T3 construct: gene HSPA5; T229G

The next assay deals with T4, AMPylated BiP* FL (Cricetulus griseus, UniProt G3I8R9, T229G/V461F).
T4 construct: gene HSPA5; T229G
An excerpt: ITC on AMPylated BiP* FL | nucleotide (ATP or ADP) binding to non-AMPylated and AMPylated V461F BiP* measured by ITC

The target of assay [2] is T5, BiP* FL (full-length T229G BiP, BiP(1-641)) (Cricetulus griseus, UniProt G3I8R9, T229G/V461F).
T5 construct: gene HSPA5; full-length two-domain BiP, residues 1-641 as printed, non-cleavable N-terminal 6xHis tag, pET28a, E. coli BL21(DE3); ATPase-deficient T229G; non-AMPylated
An excerpt: ITC on BiP* FL (full-length T229G BiP, BiP(1-641)) | ATP and ADP binding obtained from ITC experiments for FL BiP*

T5 sequence (G3I8R9 1-641 T229G/V461F): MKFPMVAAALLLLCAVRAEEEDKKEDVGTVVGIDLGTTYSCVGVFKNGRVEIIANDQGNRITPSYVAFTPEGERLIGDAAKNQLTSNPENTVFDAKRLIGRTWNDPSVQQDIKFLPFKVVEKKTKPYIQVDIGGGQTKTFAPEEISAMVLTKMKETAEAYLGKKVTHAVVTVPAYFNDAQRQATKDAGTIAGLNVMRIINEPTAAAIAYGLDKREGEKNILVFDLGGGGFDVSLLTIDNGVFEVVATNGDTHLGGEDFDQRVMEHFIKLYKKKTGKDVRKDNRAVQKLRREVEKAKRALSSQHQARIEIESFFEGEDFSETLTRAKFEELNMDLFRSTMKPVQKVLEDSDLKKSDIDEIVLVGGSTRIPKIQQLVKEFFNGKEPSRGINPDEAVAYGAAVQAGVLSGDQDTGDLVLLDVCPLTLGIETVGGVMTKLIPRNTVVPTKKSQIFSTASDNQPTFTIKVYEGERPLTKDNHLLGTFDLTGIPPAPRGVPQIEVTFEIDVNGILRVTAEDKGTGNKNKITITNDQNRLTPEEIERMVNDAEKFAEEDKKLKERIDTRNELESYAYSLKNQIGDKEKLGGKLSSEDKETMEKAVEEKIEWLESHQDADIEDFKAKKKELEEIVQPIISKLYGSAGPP
T4 sequence (G3I8R9 1-641 T229G/V461F): as above
T2 sequence (G3I8R9 1-417 T229G): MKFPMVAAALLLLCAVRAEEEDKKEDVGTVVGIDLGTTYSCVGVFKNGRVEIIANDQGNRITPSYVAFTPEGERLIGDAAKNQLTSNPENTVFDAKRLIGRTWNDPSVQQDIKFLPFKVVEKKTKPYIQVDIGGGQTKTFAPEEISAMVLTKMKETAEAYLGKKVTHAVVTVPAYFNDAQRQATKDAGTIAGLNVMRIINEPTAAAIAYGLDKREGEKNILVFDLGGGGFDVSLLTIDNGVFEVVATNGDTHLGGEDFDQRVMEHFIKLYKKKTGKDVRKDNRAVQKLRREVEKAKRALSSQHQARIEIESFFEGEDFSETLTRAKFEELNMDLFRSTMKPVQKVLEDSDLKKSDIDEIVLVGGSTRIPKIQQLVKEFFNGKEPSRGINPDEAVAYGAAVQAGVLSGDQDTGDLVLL
T3 sequence (G3I8R9 1-413 T229G): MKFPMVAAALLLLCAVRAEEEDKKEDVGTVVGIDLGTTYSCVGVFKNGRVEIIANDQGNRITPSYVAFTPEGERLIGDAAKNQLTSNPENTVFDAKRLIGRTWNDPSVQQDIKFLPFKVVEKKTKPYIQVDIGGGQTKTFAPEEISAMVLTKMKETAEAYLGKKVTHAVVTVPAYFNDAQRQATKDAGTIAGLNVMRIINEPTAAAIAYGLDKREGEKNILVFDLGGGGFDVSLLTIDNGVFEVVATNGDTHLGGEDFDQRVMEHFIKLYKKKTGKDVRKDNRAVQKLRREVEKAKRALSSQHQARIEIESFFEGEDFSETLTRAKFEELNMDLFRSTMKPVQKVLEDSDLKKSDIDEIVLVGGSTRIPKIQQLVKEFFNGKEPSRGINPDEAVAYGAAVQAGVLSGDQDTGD
T1 sequence (G3I8R9 1-641 T229G): as the sequence (G3I8R9 1-641 T229G/V461F) above, with F461V counted along it

As for `Nc1ncnc2c1ncn2[C@@H]1O[C@H](COP(=O)(O)OP(=O)(O)O)[C@@H](O)[C@H]1O` [ADP], the Kd in assay [1] was 5.73 µM; on BiP* NBD(1-417) it was 3.94 µM; at BiP* NBD(1-413), 5.27 µM; on AMPylated BiP* FL it was 2360 nM; in assay [2], 4490 nM.
For the compound `Nc1ncnc2c1ncn2[C@@H]1O[C@H](COP(=O)(O)OP(=O)(O)OP(=O)(O)O)[C@@H](O)[C@H]1O` [ATP], the values for the Kd (at AMPylated BiP* FL; in assay [2]) were 70 nM and 210 nM, respectively.

Usually Kd stands for the free concentration of one partner at which half of the binding sites on the other are occupied at equilibrium, for simple one-to-one binding.
